We go through one molecule from US8486962B2, “Antifungal agents” (F2G Ltd., priority 2005, dated 2013).

Each structure is given as a SMILES string. Values after ≈ are worked out from the molar mass of the structure shown. Some results are limits rather than exact numbers.

What is called MIC is the least concentration at which growth counts as inhibited.

In one assay the test system is Aspergillus flavus. The assay can be described thus: MIC, YAG medium, Aspergillus flavus. It is filed as cell-based. The conditions noted are these: Aspergillus flavus; YAG medium; read-out: MIC A Flavus 01. In a few lines:
(§1)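 Yeast: RPMI + 2% glucose + 0.135M MOPS pH7.0, 1-2×10^3 cfu/ml, 35° C 24-48 h, OD485, MIC at >80% inhib. Aspergillus: YAG (1% glucose, 1% NH4Cl, 0.5% yeast extract), spores 1-2×10^4 cfu/ml, 35° C 24 h, MIC at >70% inhib. Range 50-0.05 mg/L.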

Assay [1] deals with Aspergillus fumigatus AF293. The assay can be described thus: MIC, YAG medium, Aspergillus fumigatus AF293. It is filed as cell-based. Conditions: Aspergillus fumigatus, AF293; YAG medium; read-out: MIC A Fum. 293. In a few lines:
as §1

Another assay has as its system Aspergillus niger. In words: MIC, YAG medium, Aspergillus niger. It is filed as cell-based. The conditions noted are these: Aspergillus niger; YAG medium; read-out: MIC A Niger 1. In a few lines: as §1
In a further assay the test system is Aspergillus terreus. The assay can be described thus: MIC, YAG medium, Aspergillus terreus. The conditions noted are these: Aspergillus terreus; YAG medium; read-out: MIC A Terreus 4. It is filed as cell-based. The method in brief:
as §1

Assay [2] deals with Aspergillus fumigatus AF210. The assay can be described thus: MIC, YAG medium, Aspergillus fumigatus AF210. It is filed as cell-based. The conditions noted are these: Aspergillus fumigatus, AF210; YAG medium; read-out: MIC A Fum. 210. In a few lines: as §1
The test system of another assay is A Terreus 49. In words: MIC, YAG medium, A Terreus 49. Format: cell-based, Aspergillus terreus. Conditions: Aspergillus terreus; YAG medium; read-out: MIC A Terreus 49. In a few lines:
as §1

For a further assay, the system named is Candida albicans. The assay can be described thus: MIC, RPMI medium, Candida albicans. Format: cell-based. Conditions: read-out: MIC C. albicans. On the procedure:
(§2) Measurement of Minimum Inhibitory Concentrations (MICs)
(§3) Between 1 and 5 mgs of compound were accurately weighed out into a sterile Eppendorf tube. The compound was dissolved in DMSO to give a solution containing 5 mg/ml. Tubes were stored at −20° C. until required.
(§4) On the day of testing thawed solutions were vortex mixed to ensure homogeneity. 30 μl of solution was removed and added to 570 μl of sterile water in a separate sterile Eppendorf. The thoroughly mixed solution was used to prepare a series of doubling dilutions in water, in a deep well plate. Eleven replicate plates were prepared using a Minitrak by aspirating 20 μl from each well into eleven clear polystyrene 96 well plates.
(§5) Spores of Aspergillus spp (Aspergillus fumigatus, Aspergillus terreus, Aspergillus niger and Aspergillus flavus) were harvested from cultures grown on Sabarauds agar for 5 days, and resuspended in PBS/Tween 80 to approx 1×10^7 cfu/ml Other filamentous fungi (Fusarium solani, Scedosporium spp., Trichophyton spp., Absidia corymbifera), were grown on Sabarauds agar for 2-10 days and spores/hyphae resuspended in PBS/Tween to give approx 1×10^7 cfU/ml. Candida species (Candida albicans, Candida glabrata, Candida krusei, Candida parapsilosis and Candida tropicalis) were grown on Sabarauds agar, cells were harvested from the agar using a sterile loop and resuspended in PBS/Tween 80 to approx 1×10^6 cfu/ml. Each organism suspension was diluted in RPMI medium, containing 2% glucose and 0.135M MOPS buffer (pH7.0) to 2×10^4 cfu/ml for Aspergillus spp and other filamentous fungi and 2×10^3 cfu/ml for yeast. 80 μl of an organism suspension was added to each well of the plate containing drug dilutions.
(§6) This produced MIC plates with a drug range 50-0.05 mg/L and organism inocula of 1-2×10^4 cfu/ml for Aspergillus spp and other filamentous fungi and 1-2×10^3 cfu/ml for yeasts. All plates were incubated for 24-48 hrs at 35° C. Growth was assessed by monitoring the optical density at 485 nm for each well. The MIC of a compound is the lowest drug concentration that inhibits growth of an organism by >80% compared with a drug free control. MICs are recorded as mg/L. Other growth media can be used for susceptibility testing, and the activity of the described compounds can also be assessed in a medium comprising, 1% glucose, 1% ammonium chloride and 0.5% yeast extract (YAG medium). To perform MIC tests in this medium, dilutions of compounds are prepared in microtitre plates as described above. Fungal strains to be tested are grown and harvested in an identical manner to that described above, each organism suspension is then diluted in YAG medium to 2×10^4 cfu/ml for Aspergillus spp and other filamentous fungi and 2×10^3 cfu/ml for yeast. 80 μl of an organism suspension was added to each well of the plate containing drug dilutions. This produced MIC plates with a drug range 50-0.05 mg/L and organism inocula of 1-2×10^4 cfu/ml for Aspergillus spp and other filamentous fungi and 1-2×10^3 cfu/ml for yeasts. All plates were incubated for 24 hrs at 35° C. Growth was assessed by monitoring the optical density at 485 nm for each well. The MIC of a compound is the lowest drug concentration that inhibits growth of an organism by >70% compared with a drug free control. MICs are recorded as mg/L. In cases where the MIC of an organism is […]0.05 mg/L the MIC is repeated using a concentration range of 0.5-0.0005 mg/L. MIC tests in YAG medium have more clear-cut endpoints and have slightly lower MICS than those performed in RPMI medium.
(§7) The following organisms were tested: Aspergillus fumigatus AF293 and Aspergillus fumigatus AF210, Aspergillus niger, Aspergillus terreus, Aspergillus favus, Candida albicans, Candida krusei, Candida tropicalis, Candida glabrata, Candida parapsilosis, Trichophyton rubrum, Trichophyton mentagrophytes, Scedosporium prolificans, Scedosporium apiospermum, Absidia corymbifera, Fusarium solani.

Another assay deals with Candida glabrata. The assay can be described thus: MIC, RPMI medium, Candida glabrata. It is filed as cell-based. The conditions noted are these: Nakaseomyces glabratus, read-out: MIC C. glabrata. As to the method:
as §2, §3, §4, §5, §6, §7

Another assay concerns Candida krusei. The assay can be described thus: MIC, RPMI medium, Candida krusei. It is filed as cell-based. Conditions: Pichia kudriavzevii, read-out: MIC C. krusei. As to the method: as §2, §3, §4, §5, §6, §7
Another assay relates to Candida parapsilosis. In words: MIC, RPMI medium, Candida parapsilosis. It is filed as cell-based. The conditions noted are these: Lodderomyces parapsilosis, read-out: MIC C. parapsilosis. As to the method: as §2, §3, §4, §5, §6, §7
The next assay deals with Candida tropicalis. The assay can be described thus: MIC, RPMI medium, Candida tropicalis. Format: cell-based. The conditions noted are these: read-out: MIC C. tropicalis. As to the method:
as §2, §3, §4, §5, §6, §7

With `COC(=O)C1CCCN1c1ccc(NC(=O)C(=O)c2c(-c3ccccc3)cc3ccccn23)cc1` (centres unmarked) [Example 275, 1-{4-[2-Oxo-2-(2-phenyl-indolizin-3-yl)-acetylamino]-phenyl}-pyrrolidine-2-carboxylic acid methyl ester], the minimal inhibitory concentration (MIC) in the assay with Aspergillus flavus worked out at 0.03 µg/mL (≈ 0.0642 µM); in [1] it was 0.05 µg/mL (≈ 0.107 µM); with Aspergillus niger it was 0.4 µg/mL (≈ 0.856 µM); in the assay on Aspergillus terreus, 0.03 µg/mL (≈ 0.0642 µM); in assay [2], 0.03 µg/mL (≈ 0.0642 µM); with A Terreus 49, 0.015 µg/mL (≈ 0.0321 µM). In addition, the MIC is 25 µg/mL (≈ 53.5 µM) with Candida albicans; greater than 50 µg/mL in the assay with Candida glabrata; greater than 50 µg/mL with Candida krusei; greater than 50 µg/mL in the assay on Candida parapsilosis; greater than 50 µg/mL with Candida tropicalis.
